“Also recorded” adds a separate entry of the source.
Columns and labels:
[1] = Pharmacokinetic evaluation in mouse plasma after oral gavage; assay type: in vivo; conditions: 30 mg/kg oral, based on mean concentrations
Experimental: MJK2134025 and GLPG 1690 were each administered as wet milled aqueous micro-suspensions at a concentration of 3 mg/g in 1% carboxymethyl cellulose and 0.5% Tween 80. Dosing of the formulations was performed at 10.0 g/kg body weight, corresponding to 30 mg/kg body weight. The food intake was measured (FIG. 19).
Prior blood collection, minicollect K3 EDTA vials were opened at room temperature to dry the EDTA in order to avoid blood dilution by the fluid content. Following oral gavage of the test formulations tail vein blood samples were taken at 15 min, 30 min, 1 h, 2 h, 4 h and 8 h. Samples were collected in dried minicollect K3 EDTA plasma vials. The blood samples (20-25 μl) were mixed and immediately cooled to 4° C. Subsequently, the samples were centrifuged at 3000 g for 5-10 min. Supernatants were collected in Eppendorf tubes and frozen and stored at −80° C. until further processing.
MJK2134025 and GLPG1690 were quantified in mouse plasma samples by LC-MS. Frozen mouse plasma samples were thawed on ice. Samples were then precipitated at a ratio of 1:10 (v:v) with 5 ng mL^−1 17:0 LPA in methanol (as an internal standard) in a 1.5 mL Eppendorf tube with microinsert (clear glass, flat bottom, 0.2 mL, 31×6 mm, LABSOLUTE, Germany). The Eppendorf tubes were mixed for 2 minutes at 4° C. and 1600 rpm in a Thermomixer C (Eppendorf, Germany). The Eppendorf tubes were centrifuged at 4° C. and 16.1 rcf for 2 minutes. The supernatant was transferred to HPLC vials for UHPLC-HRMS measurements as described in the following section. Calibration standards of MJK2134025 and GLPG1690 were prepared by adding the reference substances of MJK2134025 and GLPG1690 to blank samples (mouse plasma without substance). The calibration curve was generated at 7 concentrations and with a weighting of 1/×. The following concentrations were used for the stock solutions: 0.1, 0.5, 1, 2.5, 10, 50 and 200 μg·mL^−1 in methanol. To prepare the 200 μg·mL^−1 stock solution, 0.04 mL of 1 mg·mL^−1 MJK2134025 and 0.04 mL of 1 mg·mL^−1 GLPG1690 were mixed with 0.12 mL methanol. These stock solutions (5 μL each) were added to the blank plasma (45 μL). The sample was then mixed for 2 minutes at 4° C. and 1600 rpm in Thermomixer C (Eppendorf, Germany). Subsequent sample processing was the same as for the samples quantified. All quantifications should be considered as preliminary estimates as stable isotope-labeled reference substances were not available and individual matrix effects cannot be excluded.
All processed plasma samples were analyzed with a Vanquish Horizon UHPLC system (Thermo Fisher Scientific, Bremen, Germany) coupled to a Thermo Scientific QExactive HF-X Orbitrap mass spectrometer (Thermo Fisher Scientific, Bremen, Germany) using a UHPLC column (Luna R Omega 1.6 μm C18 100 Å, 100*2.1 mm). A solution of 5 mM ammonium formate in water containing 0.1% formic acid (eluent A) and a 5 mM solution of ammonium formate in acetonitrile: H2O (95:5, % v:v) containing 0.1% formic acid (eluent B) were used as the mobile phase. A flow rate of 0.3 mL/min was used under the following gradient conditions: 30% eluent B for 1 minute, then linear increase to 98% in 14 minutes, holding 98% of eluent B for 5 minutes, and then decreasing to 30% in 0.5 minutes, followed by isocratic holding for 3.5 minutes. The column temperature was maintained at 25° C. Samples were kept at 4° C., and 8 μL was injected into the UHPLC-MS. The QExactive HF-X Orbitrap was acquired at a resolution of 60000 at full half-width and in both positive and negative modes. The following HESI source parameters were used: capillary voltage of 3.8 kV (negative mode) and 3.5 kV (positive mode), capillary temperature of 320° C., funnel RF level 40, sheath gas pressure 49 (N2>95%), auxiliary gas 10 (N2>95%), auxiliary gas heater temperature 300° C. The automatic gain control (AGC) was set to 10E+6. A scan range of m/z 400 to 600 was selected, and the injection time was set to 200 ms. […]

ATX = biological target: T1, ATX (Homo sapiens, UniProt Q13822); test: ATX activity assay (Autotaxin inhibitor test kit, fluorescent ATX substrate); assay type: biochemical; conditions: for IC50: read-out: IC50 (nM) ATX inhibition
T1 construct: purchased
Experimental: (§1) A solution of 10 mM of the inhibitor to test in DMSO was received. Adding 40.5 μL of this solution to 959.5 μL DMSO gave a concentration of 405 μM. […] For a threefold dilution series 800 μL of 18% DMSO in water were dispensed in twelve 1.5 mL test tubes. 400 μL of the 75.9 μM inhibitor solution were added to the first vial and the solution was vortexed. For every dilution step 400 μL of the corresponding previous dilution step were transferred and mixed by vortexing. The obtained concentrations were 7594 nM, 2531 nM, 844 nM, 281 nM, 94 nM, 31 nM, 10 nM, 3.47 nM, 1.16 nM, 0.39 nM, 0.13 nM, 0.043 nM, 0.014 nM. The eight concentration steps from 31 nM to 0.014 nM were used in the assay.
The assay was performed according to the attached manual of the assay kit. In brief 80 μL reaction buffer containing ATX, 10 μL of the dilution series from the inhibitor and 10 μL fluorescent ATX substrate solution were mixed in a well of a 96 well plate. Cleavage of the substrate by ATX causes increase in fluorescence (excitation 485 nm, emission 528 nm), which is measured by a plate reader in 1 min intervals. The increase of fluorescence between 5 min and 15 min was used to calculate the reaction rate.
The autotaxin reaction was performed in four parallel replicates for the target inhibitor and two replicates for the positive control BrP-LPA. The slope of the increase in fluorescence was calculated by Excel using the “slope” function. The IC50 was calculated by GraphPad Prism using the nolinear regression (curve fit): “log (inhibitor) vs. response with variable slope (four parameters)”.
The autotaxin reaction was performed in three parallel replicates for the target inhibitors MJK2234001 and MJK2234002 and two replicates for MJK2134025 and two replicates for the positive control BrP-LPA. All ATX-tests were performed using the protocol as described above with minor modifications. Those modifications refer to the dilution principle:
as §1, with “The obtained concentrations were 7594 nM, 2531 nM, 844 nM, 281 nM, 94 nM, 31 nM, 10 nM, 3.47 nM, 1.16 nM, 0.39 nM, 0.13 nM, 0.043 nM, 0.014 nM.” left out, “300” for “31”, “0.14” for “0.014”, “assay. During the assay, the final concentration of the inhibitor during the reaction was 1/10th of the added inhibitor solution.” for “assay.”

[2] = Cytotoxicity testing in HeLa cells (methylene blue); assay type: cell-based; conditions: human, HeLa cells (DSM ACC 57), 72 hours incubation
Experimental: Hela cells (DSM ACC 57) were grown in RPMI 1640 medium supplemented with 10 mL·L^−1 ultraglutamine 1 (CAMBREX 17-605E/U1), 550 μL·L^−1 gentamicin sulfate (50 mg·mL^−1, CAMBREX 17-518Z) and 10% heat inactivated fetal bovine serum (GIBCO Life Technologies 10270-106) at 37° C. in a 5% CO2 atmosphere in high density polyethylene flasks (NUNC 156340). Cells were pre-incubated for 48 hours in the absence of test substances. Subsequently, Hela cells were incubated with serial dilutions of the test substances in 96 well microplates for 72 hours at 37° C. in a humidified atmosphere and 5% CO2. After incubation, the cytolytic effect of compounds was analyzed relative to the negative control (DMSO) using a colorimetric assay (methylene blue). The adherent Hela cells were fixed by glutaraldehyde (MERCK 1.04239.0250) and stained with a 0.05% solution of methylene blue (SERVA 29198) for 15 min. After gentle rinsing, the stain was eluted through addition of 0.2 mL hydrochloric acid (0.33 M) to each well. The absorptions were measured at 660 nm in a SUNRISE microplate reader (TECAN). Four replicates were assayed for each substance. […] All calculations of CC50 values were performed with the software Magellan (TECAN).

[3] = Microsomal stability assay; assay type: in vitro ADME; conditions: human liver microsomes
Experimental: A microsomal stability assay was performed according to an internal standard procedure. Positive control compound diclofenac and three test items were freshly prepared as sub-dilutions in phosphate buffer (100 mM, pH 7.4) at concentrations of 200 μM and 20 μM, respectively. All incubations were conducted in triplicate in glass screw neck vials (1.5 mL, flat bottom, Macherey-Nagel, Düren, Germany) on a Thermomixer C (Eppendorf, Germany) at 37° C. and 1500 rpm. The incubation mixtures contained 270 μL human liver microsomes (HLM, 1.1 mg·mL^−1, UltraPool HLM 150, Corning B.V. Life Science, Amsterdam, the Netherlands), 270 μL NADP regeneration mix (1 mM NADP, 5 mM glucose-6-phosphate, 5 units·mL^−1 glucose-6-phosphate dehydrogenase and 5 mM MgCl2) and 30 μL phosphate buffer to reach a total volume of 570 μL. Negative controls were performed with heat inactivated (80° C., 30 min) HLM solution. Reactions were initiated by addition of diclofenac or the test item solution (30 μL). Aliquots of 100 μL were taken at 1, 15, 30, 60, and 90 minutes and immediately processed with 100 μL acetonitrile at 4° C. to terminate the reactions, and shaken for 2 minutes at 4° C. with 1600 rpm. The mixed samples were further transferred to 15 mm glass inserts (0.2 mL/6×31 mm, Macherey-Nagel, Düren, Germany) fitted in glass screw neck vials, and centrifuged for 15 min at 4° C. with 4000 rpm. The supernatants were withdrawn and subjected to high resolution mass spectrometry analysis without further treatment.
Samples were analyzed using a Vanquish Horizon UHPLC system (Thermo Fisher Scientific, Bremen, Germany) coupled to a Thermo Scientific QExactive HF-X Orbitrap mass spectrometer (Thermo Fisher Scientific, Bremen, Germany) using a UPLC column (ACQUITY HSS T3, Waters, 1.8 μm particle size, 2.1×50 mm dimensions). The column temperature was maintained at 25° C., and the samples were kept at 4° C. […]
Microsomal stability was determined in analogy to the method as described above, but as single determinations (FIG. 18).

[4] = mouse model of stroke; cited from earlier work

CCc1nc2c(C)cc(N3CCN(CC(=O)N4CC(O)C4)CC3)cn2c1N(C)c1nc(-c2ccc(F)cc2)c(C#N)s1 [GLPG1690, reference compound]
AUC [1]: 119 µg·h/mL
Cmax [1]: 35200 ng/mL
Tmax [1]: 1 h

O=C(CSc1ccc2nn[nH]c2c1)N1CCN(C(=O)OCc2cc(C(F)(F)F)cc(C(F)(F)F)c2)CC1 [MJK2234001, 3,5-bis(trifluoromethyl)benzyl 4-(2-((1H-benzo[d][1,2,3]triazol-6-yl)thio)acetyl)piperazine-1-carboxylate]
IC50 (ATX): 4 nM
CC50 at 72 h [2]: 6200 nM
microsomal stability / metabolism (in words) [3]: metabolized at a comparable speed as the experimental drug GLPG 1690

O=C(CCN1CCN(C(=O)OCc2cc(Cl)cc(Cl)c2)CC1)c1ccc2[nH]c(=O)oc2c1 [PF-8380]
infarct size and stroke-related motor deficits [4]: significantly reduced

O=C(OCc1cc(C(F)(F)F)cc(C(F)(F)F)c1)N1CCN(CCS(=O)(=O)c2ccc3nn[nH]c3c2)CC1 [MJK2134025, 3,5-bis(trifluoromethyl)benzyl 4-(2-((1H-benzo[d][1,2,3]triazol-6-yl)sulfonyl)ethyl)piperazine-1-carboxylate]
ATX-inhibitory activity (comparison in words) (ATX): almost equal ATX-inhibitory activity; also recorded: comparable ATX-inhibtion as PF8380
IC50 (ATX): 1.8 nM
CC50 at 72 h [2]: 45100 nM
microsomal stability / metabolism (in words) [3]: almost equally metabolically stable and superior to all other compounds tested; also recorded: favorable decay time course
AUC [1]: 303 µg·h/mL
Cmax [1]: 56400 ng/mL
Tmax [1]: 2 h

O=C(CS(=O)(=O)c1ccc2nn[nH]c2c1)N1CCN(C(=O)OCc2cc(C(F)(F)F)cc(C(F)(F)F)c2)CC1 [MJK2234002, 3,5-bis(trifluoromethyl)benzyl 4-(2-((1H-benzo[d][1,2,3]triazol-6-yl)sulfonyl)acetyl)piperazine-1-carboxylate]
ATX-inhibitory activity (comparison in words) (ATX): almost equal ATX-inhibitory activity
IC50 (ATX): 2 nM
CC50 at 72 h [2]: 67800 nM
microsomal stability / metabolism (in words) [3]: almost equally metabolically stable and superior to all other compounds tested

From US20240391903A1, “AUTOTAXIN-INHIBITORS” (UNIVERSITAET MUENSTER, priority 2021, published 2024)
